According to patent US9464064B2, “HCV helicase inhibitors and methods of use thereof” (University of Kansas, priority 2011, dated 2016):
Blank lines part the entries; values can stand above or below the molecule they belong to. Starred links: 1 amine or outer side, 2 acyl side, 3 side chain; linkers in the order of their positions; H or OH if unused. Positions of bridges follow the written chain, without caps; N, C: chain ends. Non-standard residues stand in square brackets, D forms with d. Residues, ends and D or L forms follow the SMILES beside them. Chains are numbered I, II in the order given. Actinocin(9to1) = Cc1c2oc3c(C)ccc(C(=O)[*:1])c3nc-2c(C(=O)[*:2])c(N)c1=O; NMeV = CN[C@H](C(=O)O)C(C)C; Sar = CNCC(=O)O

Biological target: T1, HCV NS3 helicase NS3h_1b(con1) (Hepatitis C virus genotype 1b, UniProt Q9WMX2)
T1 construct: truncated C-terminally His-tagged NS3 proteins lacking the N-terminal protease, called NS3h; His-tag (C); made in house
T1 sequence (Q9WMX2 1192-1657): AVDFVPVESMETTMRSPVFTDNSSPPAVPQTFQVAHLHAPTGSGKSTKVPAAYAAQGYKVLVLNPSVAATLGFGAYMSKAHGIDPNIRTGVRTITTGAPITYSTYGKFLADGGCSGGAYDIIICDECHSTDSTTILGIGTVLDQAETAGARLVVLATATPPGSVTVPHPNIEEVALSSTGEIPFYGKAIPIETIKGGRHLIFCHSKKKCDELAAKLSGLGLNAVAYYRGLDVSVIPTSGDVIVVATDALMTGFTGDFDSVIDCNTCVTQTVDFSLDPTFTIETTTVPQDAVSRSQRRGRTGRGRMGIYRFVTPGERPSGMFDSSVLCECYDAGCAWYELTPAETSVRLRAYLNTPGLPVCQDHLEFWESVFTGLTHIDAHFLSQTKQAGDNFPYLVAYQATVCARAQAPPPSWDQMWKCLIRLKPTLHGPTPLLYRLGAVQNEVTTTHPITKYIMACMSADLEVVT
Experiment: MBHA screen of NCI mechanistic set library at 20 μM (percent inhibition, compound interference)
Format: biochemical
Details: compounds at 20 μM; for Inh. (%) (Inhibition): calculated from Equation 1
Procedure: All molecular beacon-based helicase assays (MBHAs) were performed according to known methods (Belon & Frick (2008) supra; Belon & Frick (2009) supra). […] In each flat, black 384-well plate, 56 compounds were tested, in triplicate, along with three negative controls (DMSO only), three positive controls (500 nM dT20), and two wells with no enzyme. Fluorescence was read before ATP (F0) addition and 30 minutes after ATP was added to 1 mM (F30) using a Tecan Infinite M200 fluorescence microplate reader with excitation and emission wavelengths set to 643 and 670 nm, respectively. Percent inhibition was calculated with equation 1, and compound interference in the MBHA was calculated with equation 2.
In Equations 1 and 2, Fc0 is the fluorescence of the reactions containing the test compound before adding ATP, Fc30 is the fluorescence of the test compound reaction 30 minutes after adding ATP. F(−)0 is the average of three DMSO-only negative control reactions before adding ATP and F(−)30 is the average of three DMSO-only reactions 30 minutes after adding ATP.
To identify HCV helicase inhibitors, the MBHA was first used to screen the National Cancer Institute Developmental Therapeutics Program's mechanistic set library. In total, 827 compounds (at 20 μM) were screened using a MBHA with a DNA substrate (Table 1). Compounds were ranked by their ability to inhibit HCV helicase-catalyzed DNA unwinding as calculated from Equation 1.
Compound interference in the MBHA was evaluated by comparing the fluorescence of reactions containing each compound to the fluorescence of DMSO-only negative controls before ATP was added.

[1] = MBHA with DNA substrate, assay interference calculated with Equation 2
[2] = assay interference calculated with Equation 2 (fluorescence vs DMSO-only controls before ATP)

Int.* (Ratio) (Interference) [1]: 0.87 Ratio | Inh. (%) (Inhibition) (MBHA with DNA substrate): 3.7%
SMILES: O=C(O)c1ccc(NC(c2ccccc2)c2ccc3cccnc3c2O)cc1 (centres unmarked) [Compound 1011]

Inh. (%) (Inhibition) (MBHA with a DNA substrate): −3.0% | Int.* (Ratio) (Interference) [2]: 1.06 Ratio
SMILES: c1coc(CNc2ncnc3[nH]ncc23)c1 [Compound 1620]

Inh. (%) (Inhibition) (MBHA with a DNA substrate): −22.0% | Int.* (Ratio) (Interference) [2]: 1.01 Ratio
SMILES: Cc1cc(O)c(C(C)C)cc1C1(c2cc(C(C)C)c(O)cc2C)OC(=O)c2ccccc21 [Compound 2186]

Int.* (Ratio) (Interference) [1]: 1.01 Ratio | Inh. (%) (Inhibition) (MBHA with DNA substrate): −15.7%
SMILES: O=Nc1ccc(O)c2ncccc12 [Compound 3852]

Int.* (Ratio) (Interference) [1]: 0.92 Ratio | Inh. (%) (Inhibition) (MBHA with DNA substrate): 5.7%
SMILES: c1ccc(-c2cccc(-c3ccccn3)n2)nc1 [Compound 3905]

Inh. (%) (Inhibition) (MBHA with a DNA substrate): −27.3% | Int.* (Ratio) (Interference) [2]: 1.09 Ratio
SMILES: CC1=CC(=O)c2ccccc2C1=O [Compound 4170]

Int.* (Ratio) (Interference) [1]: 1.01 Ratio | Inh. (%) (Inhibition) (MBHA with DNA substrate): −9.2%
SMILES: Cc1ccc2ccc3ccc(C)nc3c2n1 [Compound 4280]

Int.* (Ratio) (Interference) [1]: 1.07 Ratio | Inh. (%) (Inhibition) (MBHA with DNA substrate): 5.9%
SMILES: Nc1nncs1 [Compound 4728]

Int.* (Ratio) (Interference) [1]: 1.01 Ratio | Inh. (%) (Inhibition) (MBHA with DNA substrate): −15.4%
SMILES: O=[N+]([O-])c1ccc(N=Nc2c(O)[nH]c3ccccc23)c([N+](=O)[O-])c1 [Compound 4810]

Inh. (%) (Inhibition) (MBHA with a DNA substrate): −4.5% | Int.* (Ratio) (Interference) [2]: 0.90 Ratio
SMILES: COc1ccc(O)cc1 [Compound 4960]

Inh. (%) (Inhibition) (MBHA with a DNA substrate): 7.0% | Int.* (Ratio) (Interference) [2]: 1.02 Ratio
SMILES: Nc1nc(N)c(N=Nc2ccccc2)c(=O)[nH]1 [Compound 5200]

Inh. (%) (Inhibition) (MBHA with a DNA substrate): 10.6% | Int.* (Ratio) (Interference) [2]: 0.97 Ratio
SMILES: Nc1ccccc1N [Compound 5354]

Int.* (Ratio) (Interference) [1]: 0.97 Ratio | Inh. (%) (Inhibition) (MBHA with DNA substrate): −0.5%
SMILES: O=C1c2cccc(O)c2C(=O)c2c(O)cccc21 [Compound 7210]

Int.* (Ratio) (Interference) [1]: 0.86 Ratio | Inh. (%) (Inhibition) (MBHA with DNA substrate): 20.2%
SMILES: Cc1nc(N)nc(N)c1-c1ccc(Cl)c(Cl)c1 [Compound 7364]

Int.* (Ratio) (Interference) [1]: 1.07 Ratio | Inh. (%) (Inhibition) (MBHA with DNA substrate): −18.7%
SMILES: Nc1ccc(N)c2c1C(=O)c1ccccc1C2=O [Compound 7833]

Int.* (Ratio) (Interference) [1]: 0.23 Ratio | Inh. (%) (Inhibition) (MBHA with DNA substrate): 56.7%
SMILES: COc1ccc2nc(C)cc(NCCCCCCCCCNc3cc(C)nc4ccc(OC)cc34)c2c1 [Compound 10010]

Int.* (Ratio) (Interference) [1]: 1.06 Ratio | Inh. (%) (Inhibition) (MBHA with DNA substrate): 5.6%
SMILES: O=C1c2ccccc2C(=O)c2c(O)c(O)cc(O)c21 [Compound 10447]

Int.* (Ratio) (Interference) [1]: 1.05 Ratio | Inh. (%) (Inhibition) (MBHA with DNA substrate): 2.5%
SMILES: CC1=C(O)c2ccccc2C(=O)C1=O [Compound 11897]

Inh. (%) (Inhibition) (MBHA with a DNA substrate): −4.3% | Int.* (Ratio) (Interference) [2]: 0.80 Ratio
SMILES: CC(C)=CCC1=C(O)c2ccccc2C(=O)C1=O [Compound 11905]

Int.* (Ratio) (Interference) [1]: 1.10 Ratio | Inh. (%) (Inhibition) (MBHA with DNA substrate): −18.9%
SMILES: CN(C)CCOc1ccc(I)cc1Cc1ccccc1.Cl [Compound 11930]

Int.* (Ratio) (Interference) [1]: 0.95 Ratio | Inh. (%) (Inhibition) (MBHA with DNA substrate): 4.4%
SMILES: O=c1c(Br)c(-c2ccccc2)[nH]c2ccccc12 [Compound 12825]

Int.* (Ratio) (Interference) [1]: 1.13 Ratio | Inh. (%) (Inhibition) (MBHA with DNA substrate): −14.1%
SMILES: Nc1ccc2c(c1)S(=O)(=O)c1cc(N)ccc1-2 [Compound 13966]

Int.* (Ratio) (Interference) [1]: 0.28 Ratio | Inh. (%) (Inhibition) (MBHA with DNA substrate): 31.8%
SMILES: Cc1cc2cc3cc(C)c(N)cc3nc2cc1N [Compound 13973]

Int.* (Ratio) (Interference) [1]: 1.08 Ratio | Inh. (%) (Inhibition) (MBHA with DNA substrate): 55.1%
SMILES: CCN(CC)CCCC(C)Nc1c2ccc(Cl)cc2nc2ccc(OC)cc12.Cl.Cl (centres unmarked) [Compound 14229]

More lines, now with the values behind:

SMILES: NC1(C(=O)O)CCCC1 [Compound 1026]
Inh. (%) (Inhibition) (MBHA with a DNA substrate): 9.0% | Int.* (Ratio) (Interference) [2]: 0.90 Ratio

SMILES: CC(C)(Br)C(=O)C(Br)Br [Compound 1027]
Inh. (%) (Inhibition) (MBHA with a DNA substrate): 7.0% | Int.* (Ratio) (Interference) [2]: 0.91 Ratio

SMILES: CN(C)C(=S)SSC(=S)N(C)C [Compound 1771]
Int.* (Ratio) (Interference) [1]: 0.98 Ratio | Inh. (%) (Inhibition) (MBHA with DNA substrate): 0.2%

SMILES: C1CCNCC1.S=C(S)N1CCCCC1 [Compound 1906]
Int.* (Ratio) (Interference) [1]: 1.17 Ratio | Inh. (%) (Inhibition) (MBHA with DNA substrate): −1.6%

SMILES: CC(C)C1(Cl)CCC2C3(C)CCCC(C)(C(=O)O)C3CC(Cl)C2(Cl)C1Cl (centres unmarked) [Compound 2979]
Int.* (Ratio) (Interference) [1]: 1.00 Ratio | Inh. (%) (Inhibition) (MBHA with DNA substrate): −12.5%

SMILES: Cc1c2oc3c(C)ccc(C(=O)N[C@@H]4C(=O)N[C@H](C(C)C)C(=O)N5CCC[C@H]5C(=O)N(C)CC(=O)N(C)[C@@H](C(C)C)C(=O)O[C@@H]4C)c3nc-2c(C(=O)N[C@@H]2C(=O)N[C@H](C(C)C)C(=O)N3CCC[C@H]3C(=O)N(C)CC(=O)N(C)[C@@H](C(C)C)C(=O)O[C@@H]2C)c(N)c1=O [Compound 3053] (I: T[dV]P[Sar][NMeV] / II: T[dV]P[Sar][NMeV]; ester I:1-I:C, II:1-II:C; linker I:N-II:N via Actinocin(9to1))
Int.* (Ratio) (Interference) [1]: 0.55 Ratio | Inh. (%) (Inhibition) (MBHA with DNA substrate): 67.5%

SMILES: C1COCCN1.S=C(S)N1CCOCC1 [Compound 4114]
Inh. (%) (Inhibition) (MBHA with a DNA substrate): 7.2% | Int.* (Ratio) (Interference) [2]: 1.15 Ratio

SMILES: COC1CC(OC2CCC3(C=O)C4CCC5(C)C(C6=CC(=O)OC6)CCC5(O)C4CCC3(O)C2)OC(C)C1OC1OC(CO)C(O)C(O)C1O (centres unmarked) [Compound 4320]
Int.* (Ratio) (Interference) [1]: 0.95 Ratio | Inh. (%) (Inhibition) (MBHA with DNA substrate): −12.6%

SMILES: C=C(C)[C@@H]1CC[C@]2(CO)CC[C@]3(C)[C@H](CC[C@@H]4[C@@]5(C)CC[C@H](O)C(C)(C)[C@@H]5CC[C@]43C)[C@@H]12 [Compound 4644]
Int.* (Ratio) (Interference) [1]: 1.32 Ratio | Inh. (%) (Inhibition) (MBHA with DNA substrate): −13.9%

SMILES: CCN(CC)C(=S)S [Compound 4857]
Int.* (Ratio) (Interference) [1]: 1.07 Ratio | Inh. (%) (Inhibition) (MBHA with DNA substrate): −8.0%

SMILES: CO[C@H]1[C@@H](O)[C@@H](C)O[C@H](O[C@H]2[C@H](Oc3cccc4c(O)c5c(=O)oc6ccc(C)c7c(=O)oc(c34)c5c67)O[C@H](C)[C@H](O)[C@@H]2O)[C@@H]1O [Compound 5159]
Int.* (Ratio) (Interference) [1]: 1.03 Ratio | Inh. (%) (Inhibition) (MBHA with DNA substrate): 38.6%

SMILES: CC1OC(O[C@@H]2C=C3CC[C@@H]4[C@H](CC[C@]5(C)[C@@H](c6ccc(=O)oc6)CC[C@]45O)[C@@]3(C)CC2)C(O)C(O)C1O (some centres unmarked) [Compound 7521]
Int.* (Ratio) (Interference) [1]: 0.94 Ratio | Inh. (%) (Inhibition) (MBHA with DNA substrate): 5.5%

SMILES: COC1CC(O[C@H]2CC[C@]3(C=O)[C@H]4CC[C@]5(C)[C@@H](C6=CC(=O)OC6)CC[C@]5(O)[C@@H]4CC[C@]3(O)C2)OC(C)C1O (some centres unmarked) [Compound 7522]
Inh. (%) (Inhibition) (MBHA with a DNA substrate): −24.0% | Int.* (Ratio) (Interference) [2]: 0.97 Ratio

SMILES: COC1CC(OC2CCC3(C=O)C4CCC5(C)C(C6=CC(=O)OC6)CCC5(O)C4CCC3(O)C2)OC(C)C1OC1OC(COC2OC(CO)C(O)C(O)C2O)C(O)C(O)C1O (centres unmarked) [Compound 7530]
Inh. (%) (Inhibition) (MBHA with a DNA substrate): −19.7% | Int.* (Ratio) (Interference) [2]: 0.98 Ratio

SMILES: CC(=O)O[C@H]1C[C@H](O[C@H]2[C@@H](O)C[C@H](O[C@H]3[C@@H](O)C[C@H](O[C@H]4CC[C@@]5(C)[C@H](CC[C@@H]6[C@@H]5CC[C@]5(C)[C@@H](C7=CC(=O)OC7)CC[C@]65O)C4)O[C@@H]3C)O[C@@H]2C)OC(C)[C@H]1O[C@@H]1O[C@H](CO)[C@@H](O)[C@H](O)[C@H]1O (some centres unmarked) [Compound 7532]
Inh. (%) (Inhibition) (MBHA with a DNA substrate): −3.4% | Int.* (Ratio) (Interference) [2]: 0.89 Ratio

SMILES: C1CN1c1nc(N2CC2)nc(N2CC2)n1 [Compound 9706]
Int.* (Ratio) (Interference) [1]: 0.98 Ratio | Inh. (%) (Inhibition) (MBHA with DNA substrate): −10.9%

SMILES: CCCCCCCC/C=C\CCCCCCCC(=O)O [Compound 9856]
Int.* (Ratio) (Interference) [1]: 0.84 Ratio | Inh. (%) (Inhibition) (MBHA with DNA substrate): 12.6%

SMILES: CC(C)=CC1C(C(=O)O)C1(C)C (centres unmarked) [Compound 11779]
Int.* (Ratio) (Interference) [1]: 0.89 Ratio | Inh. (%) (Inhibition) (MBHA with DNA substrate): 16.8%

SMILES: COc1cccc2c1cc([N+](=O)[O-])c1c(C(=O)O)cc3c(c12)OCO3 [Compound 11926]
Int.* (Ratio) (Interference) [1]: 1.14 Ratio | Inh. (%) (Inhibition) (MBHA with DNA substrate): −12.8%
